Kd and IC50 data for 16 compounds are collected here from BindingDB's records for doi:10.1021/cc0501561 (East China Univesity of Science and Technology, 2006).

By Kd is commonly meant a measure of binding affinity in units of concentration. One may read the IC50 as the concentration needed to halve the response being measured. Read a low IC50 as greater potency in that assay.

This experiment deals with Peptidyl-prolyl cis-trans isomerase A (Homo sapiens, UniProt P62937). The experiment is described as follows: Surface Plasmon Resonance Assay. Conditions: pH 7.4; 25 °C. How it is done: CypA in vitro were determined by employing surface plasmon resonance (SPR) technology.
Peptidyl-prolyl cis-trans isomerase A, sequence (P62937 whole entry): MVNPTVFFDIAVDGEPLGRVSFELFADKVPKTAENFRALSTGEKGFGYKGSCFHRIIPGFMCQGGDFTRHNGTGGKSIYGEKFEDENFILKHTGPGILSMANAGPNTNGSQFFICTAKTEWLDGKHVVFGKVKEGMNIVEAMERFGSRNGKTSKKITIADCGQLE
Consider `COC(=O)c1cc(C(=O)Nc2cc(-c3cccc(Cl)c3)nc3ccccc23)ccc1NCc1ccccc1` [CypA Inhibitor, 3a], for which binding was put at a Kd of 8.18 µM.

The compound `Cc1noc(NS(=O)(=O)c2ccc(NC(=O)c3ccc4nc(-c5ccco5)c(-c5ccco5)nc4c3)cc2)c1C` [CypA Inhibitor, 4b] gave an equilibrium dissociation constant (Kd) of 27.3 µM.

As to `CCOC(=O)[C@@H]1CCCN(Cc2cc(-c3ccc4ccccc4c3)nc3ccccc23)C1` [CypA Inhibitor, 1d], the affinity, expressed as Kd, was 17.2 µM.

`COC(=O)c1cc(C(=O)Nc2ccc(S(=O)(=O)Nc3onc(C)c3C)cc2)ccc1NCc1ccccc1` [CypA Inhibitor, 3b]: the Kd worked out at 10.8 µM.

The compound `CCN(CC)C(=O)CNCc1cc(-c2ccc3ccccc3c2)nc2ccccc12` [CypA Inhibitor, 1e] displayed a Kd of 3.41 µM.

For the compound `O=C(Nc1ccc(S(=O)(=O)Nc2ncccn2)cc1)c1ccc2nc(-c3ccco3)c(-c3ccco3)nc2c1` [CypA Inhibitor, 4f], the IC50 was 0.96 µM and the equilibrium dissociation constant (Kd) turned out to be 22.8 µM.

In turn, `CCOC(=O)[C@H]1CCCN(C(=O)Nc2cc(-c3cccc(Cl)c3)nc3ccccc23)C1` [CypA Inhibitor, 2b] came in with a Kd of 28.8 µM.

For the compound `Cc1ccnc(NS(=O)(=O)c2ccc(NC(=O)c3ccc4nc(-c5ccco5)c(-c5ccco5)nc4c3)cc2)n1` [CypA Inhibitor, 4c], 6.43 µM corresponded to half-maximal inhibition (IC50) and binding was put at a Kd of 41 µM.

`CC(C)CCOC(=O)Nc1cc(-c2ccc3ccccc3c2)nc2ccccc12` [CypA Inhibitor, 2a] registered an equilibrium dissociation constant (Kd) of 0.0762 µM.

For the compound `CC(C)(C)NC(=O)[C@@H]1Cc2ccccc2CN1Cc1cc(-c2ccc3ccccc3c2)nc2ccccc12` [CypA Inhibitor, 1b], the affinity, expressed as Kd, was 3.07 µM.

On to `Cc1cc(NS(=O)(=O)c2ccc(NC(=O)c3ccc4nc(-c5ccco5)c(-c5ccco5)nc4c3)cc2)no1` [CypA Inhibitor, 4e], for which the IC50 is 2.86 µM and the Kd came to 38.7 µM.

In turn, `Cc1cc(C)nc(NS(=O)(=O)c2ccc(NC(=O)c3ccc4nc(-c5ccco5)c(-c5ccco5)nc4c3)cc2)n1` [CypA Inhibitor, 4d] returned a Kd of 30.8 µM.

Turning to `c1ccc2cc(-c3cc(CN4CCCCC4)c4ccccc4n3)ccc2c1` [CypA Inhibitor, 1c], binding was characterised by a dissociation constant (Kd) of 0.212 µM.

Regarding `O=C(Nc1ccc(S(=O)(=O)Nc2cnc3ccccc3n2)cc1)c1ccc2nc(-c3ccco3)c(-c3ccco3)nc2c1` [CypA Inhibitor, 4g], inhibition was half-maximal at 0.78 µM (IC50) and the affinity, expressed as Kd, was 35.3 µM.

As for `COC(=O)c1cc(NC(=O)c2ccc3nc(-c4ccco4)c(-c4ccco4)nc3c2)ccc1NCc1ccccc1` [CypA Inhibitor, 4a], half-maximal inhibition (IC50) required 0.25 µM and the Kd was determined as 8.19 µM.

Compound `CC(C)(C)NC(=O)[C@@H]1Cc2ccccc2CN1Cc1cc(-c2cccc(Cl)c2)nc2ccccc12` [CypA Inhibitor, 1a] had a dissociation constant (Kd) of 24.3 µM.
